Reference: PubChem BioAssay (NCI)
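GI50 is the concentration that inhibits growth by half. Definition used: TGI = concentration required for complete inhibition of growth.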

Key:
Assay in all cases: growth of human tumour cells (NCI), 384-well format
[1] = tested on: A498 renal
[2] = tested on: A549 NSCLC
[3] = tested on: MDA-MB-231 breast
[4] = tested on: M14 melanoma
[5] = tested on: TK-10 renal
[6] = tested on: MOLT-4 leukemia
[7] = tested on: COLO 205 colon
[8] = tested on: U251 glioblastoma
[9] = tested on: BT-549 breast
[10] = tested on: HCT-116 colon
[11] = tested on: OVCAR-5 ovarian
[12] = tested on: RPMI-8226 leukemia
[13] = tested on: PC-3 prostate
[14] = tested on: NCI-H226 lung
[15] = tested on: LOX IMVI melanoma
[16] = tested on: HL-60(TB) leukemia
[17] = tested on: NCI/ADR-RES ovarian
[18] = tested on: MDA-MB-468 breast
[19] = tested on: K-562 leukemia
[20] = tested on: SNB-75 CNS
[21] = tested on: SK-MEL-5 melanoma
[22] = tested on: NCI-H322M lung
[23] = tested on: HT29 colon
[24] = tested on: T-47D breast
[25] = tested on: SF-295 CNS
[26] = tested on: SF-268 CNS
[27] = tested on: CAKI-1 renal
[28] = tested on: RXF 393 renal
[29] = tested on: SN12C renal
[30] = tested on: MCF7 breast
[31] = tested on: UACC-62 melanoma
[32] = tested on: DU-145 prostate
[33] = tested on: UACC-257 melanoma
[34] = tested on: OVCAR-3 ovarian
[35] = tested on: HS 578T breast
[36] = tested on: MDA-MB-435 melanoma
[37] = tested on: SR leukemia
[38] = tested on: IGROV1 ovarian
[39] = tested on: SK-MEL-28 melanoma
[40] = tested on: HOP-62 NSCLC
[41] = tested on: EKVX NSCLC
[42] = tested on: OVCAR-4 ovarian
[43] = tested on: NCI-H460 NSCLC
[44] = tested on: HCT-15 colon
[45] = tested on: SK-OV-3 ovarian
[46] = tested on: MALME-3M melanoma
[47] = tested on: CCRF-CEM leukemia
[48] = tested on: HCC-2998 colon
[49] = tested on: SNB-19 CNS
[50] = tested on: KM12 colon
[51] = tested on: SW-620 colon
[52] = tested on: 786-0 renal
[53] = tested on: ACHN renal
[54] = tested on: SK-MEL-2 melanoma
[55] = tested on: NCI-H23 lung
[56] = tested on: HOP-92 NSCLC
[57] = tested on: SF-539 CNS
[58] = tested on: NCI-H522 lung
[59] = tested on: UO-31 renal

Structure (SMILES): CN1CC[C@]2(c3cccc(O)c3)CC(=O)/C(=C/c3ccccc3)[C@H]1C2
- GI50 [1]: 16.5 µM
- TGI [1]: 30.3 µM
- GI50 [2]: 4.95 µM
- TGI [2]: 16.5 µM
- GI50 [3]: 9.42 µM
- TGI [3]: 22.1 µM
- GI50 [4]: 12.7 µM
- TGI [4]: 25.5 µM
- GI50 [5]: 14.9 µM
- TGI [5]: 28.3 µM
- GI50 [6]: 6.77 µM
- TGI [6]: 19.8 µM
- GI50 [7]: 15.4 µM
- TGI [7]: 28.9 µM
- GI50 [8]: 4.11 µM
- TGI [8]: 15.5 µM
- GI50 [9]: 5.7 µM
- TGI [9]: 17.7 µM
- GI50 [10]: 8.49 µM
- TGI [10]: 20.9 µM
- GI50 [11]: 17.6 µM
- TGI [11]: 31.8 µM
- GI50 [12]: 1.86 µM
- TGI [12]: 3.77 µM
- GI50 [13]: 10 µM
- TGI [13]: 21.9 µM
- GI50 [14]: 18.1 µM
- TGI [14]: 32.1 µM
- GI50 [15]: 12 µM
- TGI [15]: 24.5 µM
- GI50 [16]: 2.06 µM
- TGI [16]: 4.13 µM
- GI50 [17]: 11.1 µM
- TGI [17]: 27.8 µM
- GI50 [18]: 13.4 µM
- TGI [18]: 26.4 µM
- GI50 [19]: 4.3 µM
- TGI [19]: 18 µM
- GI50 [20]: 6.43 µM
- TGI [20]: 18.8 µM
- GI50 [21]: 4.91 µM
- TGI [21]: 15.7 µM
- GI50 [22]: 5.86 µM
- TGI [22]: 18.6 µM
- GI50 [23]: 13.4 µM
- TGI [23]: 26.8 µM
- GI50 [24]: 11.8 µM
- TGI [24]: 24.5 µM
- GI50 [25]: 16.2 µM
- TGI [25]: 30.1 µM
- GI50 [26]: 11.9 µM
- TGI [26]: 24.3 µM
- GI50 [27]: 8.77 µM
- TGI [27]: 21.1 µM
- GI50 [28]: 3.86 µM
- TGI [28]: 14.5 µM
- GI50 [29]: 13.6 µM
- TGI [29]: 26.9 µM
- GI50 [30]: 11.5 µM
- TGI [30]: 23.9 µM
- GI50 [31]: 10.5 µM
- TGI [31]: 22.5 µM
- GI50 [32]: 14.2 µM
- TGI [32]: 28.1 µM
- GI50 [33]: 3.9 µM
- TGI [33]: 13.7 µM
- GI50 [34]: 4.8 µM
- TGI [34]: 15.7 µM
- GI50 [35]: 3.7 µM
- TGI [35]: 14.5 µM
- GI50 [36]: 4.41 µM
- TGI [36]: 16.2 µM
- GI50 [37]: 1.16 µM
- TGI [37]: 3.15 µM
- GI50 [38]: 14.5 µM
- TGI [38]: 28 µM
- GI50 [39]: 10.7 µM
- TGI [39]: 22.8 µM
- GI50 [40]: 17 µM
- TGI [40]: 31.3 µM
- GI50 [41]: 6.2 µM
- TGI [41]: 20.3 µM
- GI50 [42]: 14.8 µM
- TGI [42]: 28.2 µM
- GI50 [43]: 4.05 µM
- TGI [43]: 15.2 µM
- GI50 [44]: 3.21 µM
- TGI [44]: 13.1 µM
- GI50 [45]: 5.01 µM
- TGI [45]: 16.6 µM
- GI50 [46]: 6.65 µM
- TGI [46]: 18.9 µM
- GI50 [47]: 11.8 µM
- TGI [47]: 24.3 µM
- GI50 [48]: 1.77 µM
- TGI [48]: 14.7 µM
- GI50 [49]: 15 µM
- TGI [49]: 29 µM
- GI50 [50]: 4.77 µM
- TGI [50]: 16.4 µM
- GI50 [51]: 5.35 µM
- TGI [51]: 16.5 µM
- GI50 [52]: 13.6 µM
- TGI [52]: 26.7 µM
- GI50 [53]: 12.8 µM
- TGI [53]: 25.7 µM
- GI50 [54]: 21.1 µM
- TGI [54]: 35.6 µM
- GI50 [55]: 12 µM
- TGI [55]: 26.4 µM
- GI50 [56]: 11.6 µM
- TGI [56]: 24 µM
- GI50 [57]: 6.7 µM
- TGI [57]: 19.6 µM
- GI50 [58]: 0.414 µM
- TGI [58]: 2.38 µM

Structure (SMILES): Cc1cccc2nc3cccc(C(=O)NCCNCCNCCNC(=O)c4cccc5nc6cccc(C)c6nc45)c3nc12
- GI50 [1]: < 0.01 µM
- TGI [1]: 2.23 µM
- GI50 [2]: < 0.01 µM
- TGI [2]: 1.51 µM
- GI50 [3]: 0.0115 µM
- TGI [3]: 0.628 µM
- GI50 [4]: < 0.01 µM
- TGI [4]: 0.751 µM
- GI50 [5]: < 0.01 µM
- TGI [5]: 6.44 µM
- GI50 [6]: < 0.01 µM
- GI50 [7]: < 0.01 µM
- TGI [7]: 1.82 µM
- GI50 [8]: < 0.01 µM
- TGI [8]: 1.78 µM
- GI50 [9]: 1.32 µM
- TGI [9]: 2.78 µM
- GI50 [11]: 0.0623 µM
- TGI [11]: > 100 µM
- GI50 [13]: 0.0171 µM
- TGI [13]: 2.28 µM
- GI50 [14]: 0.124 µM
- TGI [14]: 1.19 µM
- GI50 [16]: < 0.01 µM
- TGI [16]: 0.154 µM
- GI50 [18]: < 0.01 µM
- TGI [18]: 1.21 µM
- GI50 [19]: < 0.01 µM
- TGI [19]: 1.27 µM
- GI50 [20]: 0.127 µM
- TGI [20]: 0.316 µM
- GI50 [21]: < 0.01 µM
- TGI [21]: 1.21 µM
- GI50 [22]: 0.139 µM
- TGI [22]: 1.14 µM
- GI50 [23]: < 0.01 µM
- TGI [23]: 0.234 µM
- GI50 [24]: 0.564 µM
- TGI [24]: 5.31 µM
- GI50 [25]: < 0.01 µM
- TGI [25]: 3.08 µM
- GI50 [26]: 0.0757 µM
- TGI [26]: 0.318 µM
- GI50 [27]: < 0.01 µM
- TGI [27]: 3.14 µM
- GI50 [28]: < 0.01 µM
- TGI [28]: 0.231 µM
- GI50 [29]: 0.109 µM
- TGI [29]: 0.3 µM
- GI50 [30]: < 0.01 µM
- TGI [30]: 31.2 µM
- GI50 [31]: < 0.01 µM
- TGI [31]: 0.152 µM
- GI50 [32]: < 0.01 µM
- TGI [32]: 0.208 µM
- GI50 [33]: 1.45 µM
- TGI [33]: 3.58 µM
- GI50 [34]: < 0.01 µM
- TGI [34]: 2.62 µM
- GI50 [35]: 0.0796 µM
- TGI [35]: 0.265 µM
- GI50 [36]: 0.133 µM
- TGI [36]: 1.9 µM
- GI50 [37]: < 0.01 µM
- GI50 [38]: < 0.01 µM
- TGI [38]: 47.7 µM
- GI50 [39]: 0.51 µM
- TGI [39]: 2.14 µM
- GI50 [40]: < 0.01 µM
- TGI [40]: 1.39 µM
- GI50 [41]: 1.23 µM
- TGI [41]: 5.68 µM
- GI50 [42]: 0.188 µM
- TGI [42]: 2.02 µM
- GI50 [59]: 0.047 µM
- TGI [59]: 19.4 µM
- GI50 [43]: < 0.01 µM
- TGI [43]: 0.229 µM
- GI50 [44]: 0.0212 µM
- TGI [44]: > 100 µM
- GI50 [45]: 0.0289 µM
- TGI [45]: 3.75 µM
- GI50 [46]: 0.107 µM
- TGI [46]: 1.9 µM
- GI50 [49]: 0.245 µM
- TGI [49]: > 100 µM
- GI50 [50]: < 0.01 µM
- TGI [50]: 0.109 µM
- GI50 [51]: < 0.01 µM
- TGI [51]: 1.71 µM
- GI50 [52]: < 0.01 µM
- TGI [52]: 6.78 µM
- GI50 [53]: < 0.01 µM
- TGI [53]: 1.96 µM
- GI50 [54]: 0.0713 µM
- TGI [54]: 0.209 µM
- GI50 [55]: 0.179 µM
- TGI [55]: 1.76 µM
- GI50 [57]: < 0.01 µM
- TGI [57]: 0.454 µM
- GI50 [58]: 0.101 µM
- TGI [58]: 0.221 µM
